Assay results reported in article doi:10.1101/2021.05.05.442828v1 (biorxiv, 2021).

Experiments:
Type in all cases: cell-based
[1] = molecular target: KCa1.1 (hKCa1.1, KCNMA) (Homo sapiens, UniProt Q12791); test: two-electrode voltage clamp, Xenopus laevis oocytes; conditions: Kulori solution, pH 7.4; n=5
[2] = molecular target: KV11.1 (hERG) (Homo sapiens, UniProt Q12809); test: automated patch clamp
[3] = molecular target: TRPM8 (hTRPM8) (Homo sapiens, UniProt Q7Z2W7); test: Fluo-4 calcium flux assay, HEK-293 TRPM8 cells; conditions: antagonist mode; 30 min incubation; normalized to icilin (50 µM) response
Chain of TRPM8 (hTRPM8) (Q7Z2W7 whole entry): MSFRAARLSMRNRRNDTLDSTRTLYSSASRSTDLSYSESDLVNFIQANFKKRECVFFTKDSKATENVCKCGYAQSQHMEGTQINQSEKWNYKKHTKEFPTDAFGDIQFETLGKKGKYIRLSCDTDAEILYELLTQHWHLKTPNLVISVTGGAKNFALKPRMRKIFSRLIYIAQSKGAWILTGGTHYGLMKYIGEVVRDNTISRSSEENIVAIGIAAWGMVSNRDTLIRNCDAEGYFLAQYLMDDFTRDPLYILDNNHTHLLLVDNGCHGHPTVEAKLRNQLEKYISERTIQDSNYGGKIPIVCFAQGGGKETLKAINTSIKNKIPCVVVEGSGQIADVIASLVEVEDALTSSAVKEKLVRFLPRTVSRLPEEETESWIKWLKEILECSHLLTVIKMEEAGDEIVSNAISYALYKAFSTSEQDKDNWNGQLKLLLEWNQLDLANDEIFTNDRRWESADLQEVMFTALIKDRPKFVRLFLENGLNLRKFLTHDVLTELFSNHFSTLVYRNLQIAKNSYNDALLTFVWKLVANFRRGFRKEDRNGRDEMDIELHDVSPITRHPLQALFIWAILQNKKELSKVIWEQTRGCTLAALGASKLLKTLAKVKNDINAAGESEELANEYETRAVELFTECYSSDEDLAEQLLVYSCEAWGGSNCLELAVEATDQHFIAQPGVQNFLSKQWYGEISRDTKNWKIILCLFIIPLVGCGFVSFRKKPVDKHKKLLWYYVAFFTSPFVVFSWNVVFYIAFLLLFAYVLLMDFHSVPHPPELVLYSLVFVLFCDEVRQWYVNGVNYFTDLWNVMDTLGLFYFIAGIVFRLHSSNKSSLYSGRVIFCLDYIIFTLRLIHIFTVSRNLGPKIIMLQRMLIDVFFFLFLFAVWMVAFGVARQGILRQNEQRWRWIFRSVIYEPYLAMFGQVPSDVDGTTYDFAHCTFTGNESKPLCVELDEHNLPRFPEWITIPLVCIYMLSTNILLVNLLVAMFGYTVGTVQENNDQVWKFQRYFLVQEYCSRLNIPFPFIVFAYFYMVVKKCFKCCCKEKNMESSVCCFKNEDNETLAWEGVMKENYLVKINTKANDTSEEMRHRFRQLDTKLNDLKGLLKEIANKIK

Chain of KCa1.1 (hKCa1.1, KCNMA) (Q12791 whole entry): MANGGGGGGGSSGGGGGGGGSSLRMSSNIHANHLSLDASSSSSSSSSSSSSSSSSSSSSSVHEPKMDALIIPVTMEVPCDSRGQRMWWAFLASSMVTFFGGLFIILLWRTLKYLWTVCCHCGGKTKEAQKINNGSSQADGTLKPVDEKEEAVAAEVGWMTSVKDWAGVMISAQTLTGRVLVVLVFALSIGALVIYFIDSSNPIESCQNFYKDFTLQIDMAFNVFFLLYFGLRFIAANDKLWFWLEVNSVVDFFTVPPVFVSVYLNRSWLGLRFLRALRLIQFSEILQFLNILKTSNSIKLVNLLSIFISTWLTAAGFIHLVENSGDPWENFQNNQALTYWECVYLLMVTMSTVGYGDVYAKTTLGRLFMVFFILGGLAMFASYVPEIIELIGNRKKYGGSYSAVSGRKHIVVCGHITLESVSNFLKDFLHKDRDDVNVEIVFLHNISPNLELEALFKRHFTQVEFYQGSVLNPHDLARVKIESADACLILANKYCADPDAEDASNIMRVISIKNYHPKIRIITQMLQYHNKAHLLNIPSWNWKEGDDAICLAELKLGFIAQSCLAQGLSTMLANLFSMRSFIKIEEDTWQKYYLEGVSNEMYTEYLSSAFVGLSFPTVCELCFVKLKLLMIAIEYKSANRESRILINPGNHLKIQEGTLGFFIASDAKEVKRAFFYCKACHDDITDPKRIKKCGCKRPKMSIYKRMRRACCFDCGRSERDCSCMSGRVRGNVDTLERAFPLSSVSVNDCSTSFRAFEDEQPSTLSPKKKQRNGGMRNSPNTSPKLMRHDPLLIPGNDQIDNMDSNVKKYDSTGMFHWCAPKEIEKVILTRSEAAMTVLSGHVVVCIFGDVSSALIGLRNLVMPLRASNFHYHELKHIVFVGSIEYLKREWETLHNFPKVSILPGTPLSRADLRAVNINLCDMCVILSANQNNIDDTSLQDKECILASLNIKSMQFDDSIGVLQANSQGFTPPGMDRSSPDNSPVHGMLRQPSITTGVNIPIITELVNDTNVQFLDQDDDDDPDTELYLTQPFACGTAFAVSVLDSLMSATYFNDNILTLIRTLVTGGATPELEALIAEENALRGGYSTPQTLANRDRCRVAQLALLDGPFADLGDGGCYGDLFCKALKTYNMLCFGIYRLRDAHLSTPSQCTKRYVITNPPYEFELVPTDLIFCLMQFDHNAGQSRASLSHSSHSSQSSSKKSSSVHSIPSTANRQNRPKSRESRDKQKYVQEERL
Chain of KV11.1 (hERG) (Q12809 whole entry): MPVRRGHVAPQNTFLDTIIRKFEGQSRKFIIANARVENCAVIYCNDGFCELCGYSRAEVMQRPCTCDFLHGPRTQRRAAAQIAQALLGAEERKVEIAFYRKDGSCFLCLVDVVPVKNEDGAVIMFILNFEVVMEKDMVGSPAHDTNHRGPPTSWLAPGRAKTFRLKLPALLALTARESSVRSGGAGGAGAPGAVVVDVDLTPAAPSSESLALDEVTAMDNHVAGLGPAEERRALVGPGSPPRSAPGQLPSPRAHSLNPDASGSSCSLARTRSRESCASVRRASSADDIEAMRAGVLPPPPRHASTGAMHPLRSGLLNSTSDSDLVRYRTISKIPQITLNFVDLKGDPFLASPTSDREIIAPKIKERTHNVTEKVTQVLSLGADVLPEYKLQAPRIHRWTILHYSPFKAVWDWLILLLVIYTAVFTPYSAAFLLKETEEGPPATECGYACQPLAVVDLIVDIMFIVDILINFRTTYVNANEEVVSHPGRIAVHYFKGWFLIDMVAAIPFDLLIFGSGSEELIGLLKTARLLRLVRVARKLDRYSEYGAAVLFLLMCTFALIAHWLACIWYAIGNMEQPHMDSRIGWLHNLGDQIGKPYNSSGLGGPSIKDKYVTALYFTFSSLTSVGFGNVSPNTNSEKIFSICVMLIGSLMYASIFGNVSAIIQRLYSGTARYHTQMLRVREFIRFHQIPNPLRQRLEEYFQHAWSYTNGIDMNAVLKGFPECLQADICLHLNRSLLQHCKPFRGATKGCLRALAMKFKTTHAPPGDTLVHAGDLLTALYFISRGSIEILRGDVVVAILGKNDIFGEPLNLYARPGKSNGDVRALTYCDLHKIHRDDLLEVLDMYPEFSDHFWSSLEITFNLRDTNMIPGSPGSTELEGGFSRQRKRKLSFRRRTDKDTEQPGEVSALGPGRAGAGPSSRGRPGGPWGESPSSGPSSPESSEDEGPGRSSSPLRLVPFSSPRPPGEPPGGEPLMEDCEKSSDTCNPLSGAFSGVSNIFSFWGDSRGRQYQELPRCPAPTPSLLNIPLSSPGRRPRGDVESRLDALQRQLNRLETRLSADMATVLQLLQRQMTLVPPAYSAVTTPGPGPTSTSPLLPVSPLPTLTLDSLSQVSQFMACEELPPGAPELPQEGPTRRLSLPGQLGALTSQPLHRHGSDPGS

## COc1c(I)cc(CCN)cc1I [DIMTA, 2-(3,5-diiodo-4-methoxyphenyl)ethan-1-amine]
[1]
  % inhibition at 5 μM: 18 ± 5%
[2]
  IC50: 18.7 ± 0.1 µM
[3]
  IC50: 112 µM
